Assay results: patent US12247022B2, “Combinations for treatment of NASH/NAFLD and related diseases” (Pfizer Inc., priority 2018, dated 2025)
Structures can show the parent of a compound that is named as a salt.

Experiment: Thermodynamic stability of crystalline form versus water activity
Format: physicochemical
Conditions: ambient temperature; about 0.2 (20% RH)

Row | water activity at which the form is thermodynamically stable | Structure (SMILES)
1 | < 0.2 | COc1cc(C(=O)N2CCC3(CC2)CC(=O)c2c(cnn2C(C)C)C3)cc(-c2ccc(C(=O)O)cc2)n1 [Form 1 of Compound A, 4-(4-(1-isopropyl-7-oxo-1,4,6,7-tetrahydrospiro[indazole-5,4′-piperidine]-1′-carbonyl)-6-methoxypyridin-2-yl)benzoic acid anhydrous tris salt]
2 | > 0.2 | COc1cc(C(=O)N2CCC3(CC2)CC(=O)c2c(cnn2C(C)C)C3)cc(-c2ccc(C(=O)O)cc2)n1 [Form 2 of Compound A]
